# Experimental data from patent publication US20230141600A1, “IMIDAZOPYRAZINE DERIVATIVES” (priority 2020, published 2023).
# Counter-ions that a name gives are not always drawn.
# System: Acinetobacter baumannii ATCC17978
# Experiment: 90% growth inhibitory concentration (IC90) determination, antimicrobial susceptibility testing
# Type: cell-based
# Details: ATCC17978, 90% growth inhibition, Iso-Sensitest broth, OD 600 nm over 16 h, 35±2° C., read-out: ATCC 17978 IC90
# Description: Antimicrobial Susceptibility Testing:
# 90% Growth Inhibitory Concentration (IC90) Determination
# The in vitro antimicrobial activity of the compounds was determined according to the following procedure:
# The assay used a 10-points Iso-Sensitest broth medium to measure quantitatively the in vitro activity of the compounds against Acinetobacter baumannii ATCC17961 and ATCC17978.
# Stock compounds in DMSO were serially twofold diluted (e.g. range from 50 to 0.097 μM final concentration) in 384 wells microtiter plates and inoculated with 49 μl the bacterial suspension in Iso-Sensitest medium to have a final cell concentration of ˜5×10^(5) CFU/ml in a final volume/well of 50 ul/well. Microtiter plates were incubated at 35±2° C.
# Bacterial cell growth was determined with the measurement of optical density at λ=600 nm each minutes over a time course of 16 h. Growth inhibition was calculated during the logarithmic growth of the bacterial cells with determination of the concentration inhibiting 50% (IC50) and 90% (IC90) of the growth.
# Table 1 provides the 90% growth inhibitory concentrations (IC90) in micromoles per liter of the compounds of present invention obtained against the strain Acinetobacter baumannii ATCC17978.
row,Structure (SMILES),IC90
1,"CC[N+]1(CC)CCC(CCN(C)C(=O)c2ccc(Nc3nccn4c(-c5ccc(OC(F)F)cc5)cnc34)cc2C)CC1 [Example 24, 4-(2-(4-((3-(4-(difluoromethoxy)phenyl)imidazo[1,2-a]pyrazin-8-yl)amino)-N,2-dimethylbenzamido)ethyl)-1,1-diethylpiperidin-1-ium Formate]",742 nM
2,"COc1ccc(-c2cnc3c(Nc4ccc(C(=O)N(C)CCC5CC[N+](C)(C)CC5)c(C)c4)nccn23)c(F)c1F [Example 22, 4-[[3-(2,3-Difluoro-4-methoxy-phenyl)imidazo[1,2-a]pyrazin-8-yl]amino]-N-[2-(1,1-dimethylpiperidin-1-ium-4-yl)ethyl]-N,2-dimethyl-benzamide 2,2,2-trifluoroacetate]",260 nM
3,"Cc1cc(Nc2nccn3c(-c4ccc(OC(F)F)cc4)cnc23)ccc1C(=O)NCCOCC[N+](C)(C)C [Example 1, 2-(2-(4-((3-(4-(difluoromethoxy)phenyl)imidazo[1,2-a]pyrazin-8-yl)amino)-2-methylbenzamido)ethoxy)-N,N,N-trimethylethanaminium Iodide]",658 nM
4,"Cc1cc(Nc2nccn3c(-c4ccc(OC(F)F)cc4)cnc23)ccc1C(=O)N1CCC(CC[N+](C)(C)C)CC1 [Example 29, 2-(1-(4-((3-(4-(Difluoromethoxy)phenyl)imidazo[1,2-a]pyrazin-8-yl)amino)-2-methylbenzoyl)piperidin-4-yl)-N,N,N-trimethylethanaminium Formate]",293 nM
5,"C[N+](C)(C)CCN1CCN(C(=O)c2ccc(Nc3nccn4c(-c5ccc(OCC#N)c(F)c5F)cnc34)cc2Cl)CC1 [Example 26, 2-[4-[2-chloro-4-[[3-[4-(cyanomethoxy)-2,3-difluorophenyl]imidazo[1,2-a]pyrazin-8-yl]amino]benzoyl]piperazin-1-yl]ethyl-trimethylazanium Iodide]",156 nM
6,"CN(CCN1CC[N+](C)(C)CC1)C(=O)c1ccc(Nc2nccn3c(-c4ccc(OCC#N)c(F)c4F)cnc23)cc1Cl [Example 34, 2-Chloro-4-[[3-[4-(cyanomethoxy)-2,3-difluoro-phenyl]imidazo[1,2-a]pyrazin-8-yl]amino]-N-[2-(4,4-dimethylpiperazin-4-ium-1-yl)ethyl]-N-methyl-benzamide iodide]",246 nM
7,"COc1ccc(-c2cnc3c(Nc4ccc(C(=O)N5CCN(C(=O)C[N+](C)(C)C)CC5)c(C)c4)nccn23)cc1F [Example 32, 2-(4-(4-((3-(3-Fluoro-4-methoxyphenyl)imidazo[1,2-a]pyrazin-8-yl)amino)-2-methylbenzoyl)piperazin-1-yl)-N,N,N-trimethyl-2-oxoethan-1-aminium Iodide]",307 nM
8,"Cc1cc(Nc2nccn3c(-c4ccc(OCC#CCN)cc4)cnc23)ccc1C(=O)N(C)CCC1CC[N+](C)(C)CC1 [Example 5, 4-[[3-[4-(4-aminobut-2-ynoxy)phenyl]imidazo[1,2-a]pyrazin-8-yl]amino]-N-[2-(1,1-dimethylpiperidin-1-ium-4-yl)ethyl]-N,2-dimethyl-benzamide Formate]",2130 nM
9,"CC[N+]1(C)CCC(CCNC(=O)c2ccc(Nc3nccn4c(-c5ccc(OC)cc5)cnc34)cc2C)CC1 (stereo not drawn) [Example 20, 1-ethyl-4-(2-(4-((3-(4-methoxyphenyl)imidazo[1,2-a]pyrazin-8-yl)amino)-2-methylbenzamido)ethyl)-1-methylpiperidin-1-ium Formate]",958 nM
10,"COc1ccc(-c2cnc3c(Nc4ccc(C(=O)N5CCN(C(=O)C[N+](C)(C)C)CC5)c(Cl)c4)nccn23)cc1F [Example 31, [2-[4-[2-Chloro-4-[[3-(3-fluoro-4-methoxyphenyl)imidazo[1,2-a]pyrazin-8-yl]amino]benzoyl]piperazin-1-yl]-2-oxoethyl]-trimethylazanium Formate]",120 nM
11,"COc1ccc(-c2cnc3c(Nc4ccc5c(c4)CCN(CCOCC[N+](C)(C)C)C5=O)nccn23)c(F)c1F [Example 16, 2-[2-[6-[[3-(2,3-difluoro-4-methoxy-phenyl)imidazo[1,2-a]pyrazin-8-yl]amino]-1-oxo-3,4-dihydroisoquinolin-2-yl]ethoxy]ethyl-trimethyl-ammonium Formate]",396 nM
12,"C#CCOc1ccc(-c2cnc3c(Nc4ccc(C(=O)NCCOCC[N+](C)(C)C)c(CC)c4)nccn23)c(F)c1F [Example 15, 2-[2-[[4-[[3-(2,3-Difluoro-4-prop-2-ynoxy-phenyl)imidazo[1,2-a]pyrazin-8-yl]amino]-2-ethyl-benzoyl]amino]ethoxy]ethyl-trimethyl-ammonium 2,2,2-trifluoroacetate]",238 nM
13,"COc1ccc(-c2cnc3c(Nc4ccc(C(=O)NCCC5CC[N+](C)(CC(=O)O)CC5)c(C)c4)nccn23)cc1 (stereo not drawn) [Example 23, 1-(carboxymethyl)-4-(2-(4-((3-(4-methoxyphenyl)imidazo[1,2-a]pyrazin-8-yl)amino)-2-methylbenzamido)ethyl)-1-methylpiperidin-1-ium Formate]",2220 nM
14,"Cc1cc(Nc2nccn3c(-c4ccc(OC(F)F)cc4)cnc23)ccc1C(=O)N1CCN(C(=O)N2CC[N+](C)(C)CC2)CC1 [Example 30, [4-[[3-[4-(Difluoromethoxy)phenyl]imidazo[1,2-a]pyrazin-8-yl]amino]-2-methyl-phenyl]-[4-(4,4-dimethylpiperazin-4-ium-1-carbonyl)piperazin-1-yl]methanone Formate]",497 nM

# More lines, now with the values ahead:
row,IC90,Structure (SMILES)
1,383 nM,"COc1ccc(-c2cnc3c(Nc4ccc(C(=O)NCCC[N+](C)(C)C)c(Cl)c4)nccn23)c(F)c1F [Example 47, 3-[[2-Chloro-4-[[3-(2,3-difluoro-4-methoxy-phenyl)imidazo[1,2-a]pyrazin-8-yl]amino]benzoyl]amino]propyl-trimethyl-ammonium Formate]"
2,414 nM,"Cc1cc(Nc2nccn3c(-c4ccc(OC(F)F)cc4)cnc23)ccc1C(=O)N1CCN(C(=O)C[N+](C)(C)C)CC1 [Example 42, [2-[4-[4-[[3-[4-(Difluoromethoxy)phenyl]imidazo[1,2-a]pyrazin-8-yl]amino]-2-methyl-benzoyl]piperazin-1-yl]-2-oxo-ethyl]-trimethyl-ammonium Chloride]"
3,161 nM,"C[N+]1(CCOCCNC(=O)c2ccc(Nc3nccn4c(-c5ccc(OCC#N)c(F)c5F)cnc34)cc2Cl)CCCC1 [Example 46, 2-Chloro-4-[[3-[4-(cyanomethoxy)-2,3-difluoro-phenyl]imidazo[1,2-a]pyrazin-8-yl]amino]-N-[2-[2-(1-methylpyrrolidin-1-ium-1-yl)ethoxy]ethyl]benzamide Formate]"
4,62.8 nM,"CCc1cc(Nc2nccn3c(-c4ccc(OC)c(F)c4F)cnc23)ccc1C(=O)NCCOCC[N+](C)(C)CCO [Example 51, 2-[2-[[4-[[3-(2,3-Difluoro-4-methoxy-phenyl)imidazo[1,2-a]pyrazin-8-yl]amino]-2-ethyl-benzoyl]amino]ethoxy]ethyl-(2-hydroxyethyl)-dimethyl-ammonium formate]"
5,148 nM,"COc1ccc(-c2cnc3c(Nc4ccc(C(=O)NCCOCC[N+](C)(C)C)c(Br)c4)nccn23)c(F)c1F [Example 44, 2-[2-[[2-bromo-4-[[3-(2,3-difluoro-4-methoxy-phenyl)imidazo[1,2-a]pyrazin-8-yl]amino]benzoyl]amino]ethoxy]ethyl-trimethyl-ammonium 2,2,2-trifluoroacetate]"
6,132 nM,"CCc1cc(Nc2nccn3c(-c4ccc(OCC#N)c(F)c4F)cnc23)ccc1C(=O)NCCOCC[N+](C)(C)C [Example 41, 2-[2-[[4-[[3-[4-(Cyanomethoxy)-2,3-difluoro-phenyl]imidazo[1,2-a]pyrazin-8-yl]amino]-2-ethyl-benzoyl]amino]ethoxy]ethyl-trimethyl-ammonium Iodide]"
7,45.2 nM,"C[N+](C)(C)CC(=O)N1CCN(C(=O)c2ccc(Nc3nccn4c(-c5ccc(OCC#N)c(F)c5F)cnc34)cc2Cl)CC1 [Example 54, 2-(4-(2-Chloro-4-((3-(4-(cyanomethoxy)-2,3-difluorophenyl)imidazo[1,2-a]pyrazin-8-yl)amino)benzoyl)piperazin-1-yl)-N,N,N-trimethyl-2-oxoethan-1-aminium Formate]"
8,566 nM,"CC[N+](CC)(CC)CCCNC(=O)c1ccc(Nc2nccn3c(-c4ccc(OC)c(F)c4F)cnc23)cc1Cl [Example 48, 3-[[2-Chloro-4-[[3-(2,3-difluoro-4-methoxy-phenyl)imidazo[1,2-a]pyrazin-8-yl]amino]benzoyl]amino]propyl-triethyl-ammonium Formate]"

# Same assay, conditions: ATCC17978, 16 h, read-out: ATCC 17978 IC90
row,Structure (SMILES),IC90
1,"Cc1cc(Nc2nccn3c(-c4ccc(OCC#N)c(F)c4F)cnc23)ccc1C(=O)N1CCC(CC[N+](C)(C)C)CC1 [Example 2, 2-[1-[4-[[3-[4-(Cyanomethoxy)-2,3-difluoro-phenyl]imidazo[1,2-a]pyrazin-8-yl]amino]-2-methyl-benzoyl]-4-piperidyl]ethyl-trimethyl-ammonium Formate]",214 nM
2,"COc1ccc(-c2cnc3c(Nc4ccc(C(=O)N5CC[C@@H](C(=O)NCC[N+](C)(C)C)[C@H](O)C5)c(C)c4)nccn23)cc1F [Example 37, 2-[[(3S,4R)-1-[4-[[3-(3-fluoro-4-methoxy-phenyl)imidazo[1,2-a]pyrazin-8-yl]amino]-2-methyl-benzoyl]-3-hydroxy-piperidine-4-carbonyl]amino]ethyl-trimethyl-ammonium Formate]",4770 nM
